# Measured values as given in patent US7049344B2 (Wilex Biotechnology GmbH, priority 2000, dated 2006).
# Counter-ions that a name gives are not always drawn.
# Legend:
# [1] = molecular target: T1, Trypsin (UniProt P00760); test: In-vitro protease inhibition, chromogenic substrate, Dixon Ki; assay type: biochemical; conditions: 25° C, pH 8.0; read-out: K1 Trypsin
# T1 sequence (P00760 1-246): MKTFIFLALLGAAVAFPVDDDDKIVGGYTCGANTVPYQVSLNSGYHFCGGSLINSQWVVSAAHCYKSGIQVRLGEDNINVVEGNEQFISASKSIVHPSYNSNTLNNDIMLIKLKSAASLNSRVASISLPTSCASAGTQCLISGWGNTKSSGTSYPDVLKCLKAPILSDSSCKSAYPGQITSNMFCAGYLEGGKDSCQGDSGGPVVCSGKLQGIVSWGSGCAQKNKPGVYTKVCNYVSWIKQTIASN
# Method: (§1) The uPA inhibitor activity was determined by incubating 200 μl of Tris buffer (0.05 mol/l, containing the inhibitor, 0.154 mol/l NaCl, 5% ethanol, pH 8.0), 25 μl of substrate (Pefachrome UK or BZ-β-Ala-Gly-Arg-pNA in H2O; Pentapharm Ltd, Basle, Switzerland) and 50 μl of sc-urokinase (Ribosepharm GmbH, Haan, Germany) or another corresponding protease at 25° C. After 3 min, the reaction was interrupted by adding 25 μl of acetic acid (50%) and absorbance at 405 nm was determined by means of a microplate reader (MR 5000, Dynatech, Denkendorf, Germany). The Ki values were determined by linear regression according to Dixon by means of a computer program. The Ki values are the average of at least three determinations, and the standard deviation was below 25%.
# [2] = molecular target: Plasmin (Homo sapiens, UniProt P00747); test: as above; assay type: biochemical; conditions: 25° C, pH 8.0; read-out: K1 Plasmin
# Chain of Plasmin (P00747 581-810 limits assumed, species assumed): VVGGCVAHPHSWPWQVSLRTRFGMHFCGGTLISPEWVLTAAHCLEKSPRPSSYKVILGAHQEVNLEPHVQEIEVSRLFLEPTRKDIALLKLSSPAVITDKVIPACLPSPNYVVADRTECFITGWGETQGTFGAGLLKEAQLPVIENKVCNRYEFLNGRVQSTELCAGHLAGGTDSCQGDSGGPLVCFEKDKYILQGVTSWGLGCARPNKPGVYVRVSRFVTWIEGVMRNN
# Chain of Plasmin (P00747 97-580 partner limits assumed, species assumed): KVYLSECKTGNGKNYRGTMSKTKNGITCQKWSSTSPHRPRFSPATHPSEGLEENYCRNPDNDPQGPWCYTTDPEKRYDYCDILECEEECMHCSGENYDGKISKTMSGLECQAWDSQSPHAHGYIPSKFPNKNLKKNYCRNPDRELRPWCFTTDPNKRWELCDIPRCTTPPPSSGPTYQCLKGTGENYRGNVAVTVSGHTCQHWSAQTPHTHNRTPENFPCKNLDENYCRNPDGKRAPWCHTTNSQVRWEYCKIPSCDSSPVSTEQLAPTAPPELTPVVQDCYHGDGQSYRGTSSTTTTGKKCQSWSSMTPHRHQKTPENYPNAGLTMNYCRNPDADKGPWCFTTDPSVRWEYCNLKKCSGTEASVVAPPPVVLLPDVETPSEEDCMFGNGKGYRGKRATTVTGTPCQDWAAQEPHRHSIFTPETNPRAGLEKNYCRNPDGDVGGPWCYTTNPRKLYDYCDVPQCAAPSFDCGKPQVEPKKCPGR
# Method: as §1
# [3] = molecular target: FXA (UniProt P00743); test: as above; assay type: biochemical; conditions: 25° C, pH 8.0; read-out: K1 FXA
# Method: as §1
# [4] = molecular target: Thrombin (UniProt P00735); test: as above; assay type: biochemical; conditions: 25° C, pH 8.0; read-out: K1 Thrombin
# Method: as §1
# [5] = molecular target: T2, uPA (sc-urokinase) (Homo sapiens, UniProt P00749); test: In-vitro inhibition of urokinase, chromogenic substrate, Dixon Ki; assay type: biochemical; conditions: 25° C, pH 8.0; average of at least three determinations; read-out: K1 uPA
# T2 construct: purchased Ribosepharm GmbH, Haan, Germany
# Method: as §1
# [6] = tested on: rat breast adenocarcinoma cells; conditions: after i.v. inoculation of rat breast adenocarcinoma cells; cited from earlier work
# [7] = tested on: mouse breast cancer; conditions: cited from earlier work
# [8] = tested on: rat prostate cancer; conditions: syngeneic model of rat prostate cancer; cited from earlier work
# [9] = tested on: DU145 tumors (a prostate adenocarcinoma cell line); conditions: SCID mice, oral, daily dose of 125 to 250 mg/kg/day; cited from earlier work
smiles,measurement,setting,value
"N=C(N)Nc1ccc(CNC(=O)[C@@H](CO)c2ccccc2)cc1 (racemic) [ST-390, N-(4-guanidinobenzyl)-D,L-tropamide Hydrochloride]",Ki,[1],> 1000 µM
same,Ki,[2],> 1000 µM
same,Ki,[3],> 1000 µM
same,Ki,[4],> 1000 µM
same,Ki,[5],51 µM
N=C(N)NC(=O)c1nc(Cl)c(N)nc1N [Amiloride],formation of lung metastases,[6],prevents the formation of lung metastases
"N=C(N)c1cc2c(I)cccc2s1 [B428, 4-iodobenzo[b]thiophene-2-carboxamidine]",primary tumor growth,[7]; B428 administered together with the antiestrogen tamoxifen,further decrease in primary tumor growth
same,tumor growth and metastases formation,[7]; syngeneic model of mouse breast cancer,decrease of tumor growth and metastases formation
same,tumor growth and metastases formation,[8],decrease of tumor growth and metastases formation
N=C(N)Nc1ccc(CNC(=O)C(C(=O)OCc2ccccc2)C23CC4CC(CC(C4)C2)C3)cc1 (centres unmarked) [ST-100],Ki,[5],< 1 µM
"N=C(N)Nc1ccc(CNC(=O)C(C(=O)OCc2ccccc2)c2ccccc2)cc1 (centres unmarked) [ST-401, N-(4-guanidinobenzyl) 2-(benzyloxycarbonyl)-2-phenylacetamide hydrochloride]",Ki,[2],> 1000 µM
same,Ki,[3],> 1000 µM
same,Ki,[4],> 1000 µM
same,Ki,[5],1.4 µM
"N=C(N)Nc1ccc(CNC(=O)C(C(=O)O)c2ccccc2)cc1 (centres unmarked) [ST-406, N-(4-guanidinobenzyl) 2-(hydroxycarbonyl)-2-phenylacetamide Hydrochloride]",Ki,[5],< 10 µM
N=C(N)c1ccc(N)cc1 [p-Aminobenzamidine],growth rate of DU145 tumors,[9],distinct decrease
same,side effects,[9],negligible
